# Laboratory results as given in patent US20250134863A1, “MEDICAL AGENT FOR TREATING OR SUPPRESSING PROGRESSION OF AMYOTROPHIC LATERAL SCLEROSIS” (MITSUBISHI TANABE PHARMA CORPORATION, priority 2022, published 2025).
# Key:
# ALS patients [1] = experiment: Post-hoc statistical analysis 2: uric acid levels from baseline to cycle 12 (16, 17 and 19 trials); assay type: in vivo, human
# Excerpt: After a 12-week observation period, patients whose ALSFRS-R total score decreased by 1 to 4 points during that period were considered eligible for the trial. In the 16 trial, eligible patients were randomly divided into an edaravone treatment group and a placebo administration group, and patients in each group received administration for 24 weeks (cycles 1 to 6). After completing the 24-week double-blind portion of the 16 trial, patients who received edaravone (E) were randomly assigned to the 17 trial, and during a 24-week double-blind extension period (cycles 7 to 12), edaravone treatment (EE group) or placebo administration (EP group) was performed. On the other hand, all patients from the placebo (P) administration group received edaravone treatment (PE group). All patients received open-label edaravone treatment for the next 12 weeks (cycles 13 to 15).
# Edaravone was administered at a dose of 60 mg by intravenous infusion over 60 minutes, once daily. The infusion was given for 14 days in the first treatment cycle, and for 10 days out of the 14-day treatment period in all subsequent cycles. A 14-day drug holiday period was provided after each treatment cycle.
# Similar to the 16 trial, after a 12-week observation period, patients in the 19 trial were randomly divided into an edaravone treatment group and a placebo administration group, and patients in each group received administration for 24 weeks (cycles 1 to 6). In the 19 trial, after the double-blind treatment period, all patients received open-label edaravone treatment for an additional 24 weeks (cycles 7 to 12). Therefore, the 19 trial included an EE group and a PE group.
# The blood uric acid levels in the 16 trial, 17 trial, and 19 trial were measured values obtained using the uricase-peroxidase method.
# In order to characterize the uric acid level and ALSFRS-R total score profiles at cycle 12, efficacy was analyzed in randomized ALS patients at the start of cycle 7 and randomized ALS patients who received the medical agent at least once after the start of cycle 7.
# Descriptive statistics (number of subjects, mean, standard deviation, minimum, maximum) were used to summarize the changes in uric acid levels (mg/dL) and ALSFRS-R total scores from baseline to cycle 12 for the entire population and for the Edaravone treatment group as a subgroup defined by the median baseline uric acid level (4.8 mg/dL). The median baseline uric acid level for all patients (4.8 mg/dL) was derived using the entire edaravone population, including the EE, PE, and EP groups in the 16 trial, the 17 trial, and the 19 trial.
# ALS patients [2] = experiment: Propensity score matching cohort evaluation, EE group vs PRO-ACT placebo, ALSFRS-R total score; assay type: in vivo, human
# Experimental: In a sensitivity analysis, propensity score matching cohort evaluation was conducted to compare the baseline changes in ALSFRS-R total score at 48 weeks between the EE group from the 16 trial, the 17 trial, and the 19 trial, and a matching cohort from the Pooled Resource Open-Access ALS Clinical Trials Database (hereinafter PRO-ACT) database. The EE group and PRO-ACT placebo group were matched 1:1 using a caliper width of 0.2 of the log it of the propensity score. The propensity score was developed using baseline confounding factors and ALS progression variables (gender, body weight, age, duration of ALS disease, ALSFRS-R total score baseline, uric acid baseline) of the EE group. A balance after the matching was evaluated using a standardized mean difference of less than 0.1 (Reference 6: J Clin Epidemiol 2001; 54 (4): 387-398). The propensity score was added as an explanatory variable for the MMRM analysis. Further, a subgroup analysis of uric acid levels was performed using MMRM analysis within the matching cohort, and the change from baseline in the ALSFRS-R total score at 48 weeks was compared between the EE group and the PRO-ACT placebo group.
# [3] = Subgroup with uric acid level baseline <4.8 mg/dL, EE group
# [4] = Subgroup with uric acid level baseline <4.8 mg/dL, EP group
# [5] = Subgroup with uric acid level baseline <4.8 mg/dL, PE group
# [6] = Subgroup with uric acid level baseline ≥4.8 mg/dL, EE group
# [7] = Subgroup with uric acid level baseline ≥4.8 mg/dL, EP group
# [8] = Subgroup with uric acid level baseline ≥4.8 mg/dL, PE group
# [9] = uric acid level baseline <4.8 mg/dL
# [10] = uric acid level baseline ≥4.8 mg/dL
smiles,measurement,setting,value
"CC1=NN(c2ccccc2)C(=O)C1 [edaravone, 3-methyl-1-phenyl-2-pyrazolin-5-one]","Uric acid level change from BL to cycle 12, Mean (SD)","ALS patients [1]; Overall, EP group, listed as Edaravone",−0.22 (0.77) mg/dL
same,"Uric acid level at Cycle 12, Mean (SD)","ALS patients [1]; Overall, Edaravone-Edaravone (EE) group",4.4 (1.36) mg/dL
same,"Uric acid level at Cycle 12, Mean (SD)","ALS patients [1]; Overall, Edaravone-Placebo (EP) group",4.9 (1.20) mg/dL
same,"Uric acid level change from BL to cycle 12, Mean (SD)","ALS patients [1]; Overall, PE group",-0.37 mg/dL
same,"Uric acid level change from BL to cycle 12, Mean (SD)","ALS patients [1]; Overall, PE group, listed as Edaravone",−0.37 (0.86) mg/dL
same,"Uric acid level at Cycle 12, Mean (SD)","ALS patients [1]; Overall, Placebo-Edaravone (PE) group",4.5 (1.32) mg/dL
same,"Uric acid level at Cycle 12, Mean (SD)",ALS patients [1]; [3],3.6 (0.85) mg/dL
same,"Uric acid level change from BL to cycle 12, Mean (SD)",ALS patients [1]; [3],−0.10 (0.69) mg/dL
same,"Uric acid level at Cycle 12, Mean (SD)",ALS patients [1]; [4],4.1 (0.93) mg/dL
same,"Uric acid level change from BL to cycle 12, Mean (SD)",ALS patients [1]; [4],0.15 (0.64) mg/dL
same,"Uric acid level at Cycle 12, Mean (SD)",ALS patients [1]; [5],3.6 (0.95) mg/dL
same,"Uric acid level change from BL to cycle 12, Mean (SD)",ALS patients [1]; [5],0.00 (0.71) mg/dL
same,"Uric acid level at Cycle 12, Mean (SD)",ALS patients [1]; [6],5.4 (1.21) mg/dL
same,"Uric acid level change from BL to cycle 12, Mean (SD)",ALS patients [1]; [6],-0.4 mg/dL
same,"Uric acid level change from BL to cycle 12, Mean (SD)","ALS patients [1]; Subgroup with uric acid level baseline ≥4.8 mg/dL, EE group, listed as Edaravone",−0.41 (1.01) mg/dL
same,"Uric acid level at Cycle 12, Mean (SD)",ALS patients [1]; [7],5.5 (1.04) mg/dL
same,"Uric acid level change from BL to cycle 12, Mean (SD)",ALS patients [1]; [7],-0.48 mg/dL
same,"Uric acid level change from BL to cycle 12, Mean (SD)","ALS patients [1]; Subgroup with uric acid level baseline ≥4.8 mg/dL, EP group, listed as Edaravone",−0.48 (0.77) mg/dL
same,"Uric acid level at Cycle 12, Mean (SD)",ALS patients [1]; [8],5.2 (1.17) mg/dL
same,"Uric acid level change from BL to cycle 12, Mean (SD)",ALS patients [1]; [8],-0.68 mg/dL
same,"Uric acid level change from BL to cycle 12, Mean (SD)","ALS patients [1]; Subgroup with uric acid level baseline ≥4.8 mg/dL, PE group, listed as Edaravone",−0.68 (0.86) mg/dL
same,"ALSFRS-R total score at Cycle 12, Mean (SD)",ALS patients [2]; Overall,32.8 (7.79) points
same,"ALSFRS-R total score change from baseline to cycle 12, LS Mean (SE)",ALS patients [2]; Overall,−8.7±0.53 points
same,"ALSFRS-R total score change from baseline to cycle 12, Mean (SD)",ALS patients [2]; Overall,−8.2 (6.16) points
same,"ALSFRS-R total score change from baseline to cycle 12, LSMD vs placebo PRO-ACT (SE)","ALS patients [2]; Overall, 95% CI [0.71, 3.72], p=0.0041",2.21±0.77 points
same,"ALSFRS-R total score change from baseline to cycle 12, LS Mean (SE)","ALS patients [2]; Overall, listed as Edaravone",−8.7 (0.53) points
same,"ALSFRS-R total score at Cycle 12, Mean (SD)",ALS patients [2]; [9],31.3 (8.79) points
same,"ALSFRS-R total score change from baseline to cycle 12, LS Mean (SE)",ALS patients [2]; [9],−10.3 (0.74) points
same,"ALSFRS-R total score change from baseline to cycle 12, Mean (SD)",ALS patients [2]; [9],−9.6 (7.52) points
same,"ALSFRS-R total score at Cycle 12, Mean (SD)",ALS patients [2]; [10],34.0 (6.75) points
same,"ALSFRS-R total score change from baseline to cycle 12, LS Mean (SE)",ALS patients [2]; [10],−7.3 (0.73) points
same,"ALSFRS-R total score change from baseline to cycle 12, Mean (SD)",ALS patients [2]; [10],−7.1 (4.58) points
